From PMC12763877 (Journal of Experimental & Clinical Cancer Research : CR, 2025)

Assays:
[1] = test system: pathological choroidal neovascularization; set-up: method as in PMID 30208056; conditions: mouse model; cited from earlier work
APLNR = target: T1, APLNR (Homo sapiens, UniProt P35414); set-up: expressed in transfected cells; host or cells: HEK293; conditions: cited from earlier work
T1 sequence (P35414 1-380): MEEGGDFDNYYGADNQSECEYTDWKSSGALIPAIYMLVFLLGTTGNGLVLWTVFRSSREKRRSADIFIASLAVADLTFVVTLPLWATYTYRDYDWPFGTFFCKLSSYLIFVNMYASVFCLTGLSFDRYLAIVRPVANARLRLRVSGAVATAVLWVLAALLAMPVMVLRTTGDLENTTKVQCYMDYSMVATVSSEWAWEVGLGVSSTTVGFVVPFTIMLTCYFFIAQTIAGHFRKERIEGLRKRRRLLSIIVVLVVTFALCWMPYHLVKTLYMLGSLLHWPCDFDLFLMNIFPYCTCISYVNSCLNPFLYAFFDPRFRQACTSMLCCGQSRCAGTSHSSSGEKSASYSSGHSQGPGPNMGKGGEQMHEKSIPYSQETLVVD

zebrafish embryos = assay: Zebrafish embryo toxicity; assay type: in vivo, zebrafish (Danio rerio); conditions: embryos exposed 12 to 48 hpf, survival
Protocol: Transgenic zebrafish Tg(flk: EGFP) were obtained from the China Zebrafish Resource Center and maintained at 28 ± 1 °C under a 14-hour light/10-hour dark cycle. […] Survival rates were recorded to calculate the median lethal concentration (LC₅₀). For the retinal angiogenesis assay, embryos at 1 day post fertilization (dpf) were transferred to E3 medium containing 5 mM CoCl₂·6 H₂O and 2.5 µg/mL GS4012 to induce hypoxia and abnormal vessel formation. At 3 dpf, test compounds were added and incubation continued until 5 dpf. Blank, model, and vehicle (≤ 0.1% DMSO) controls were included, with at least three replicates per group (n = 10–15 embryos). At 5 dpf, retinal vasculature was imaged using fluorescence microscopy and analyzed for branching number, vessel length, and density using ImageJ. Data are presented as mean ± standard deviation (SD) and analyzed using one-way ANOVA followed by Tukey’s post hoc test, with p < 0.05 considered statistically significant.
The zebrafish (Danio rerio) model was employed due to its distinct advantages, the optical transparency, which enable in vivo vascular visualization. […] Firstly, the 8 candidate compounds underwent preliminary toxicity evaluation in zebrafish embryos. […] At 48 hpf, the number of surviving embryos was quantified, and the lethal dose 50 (LD50) for each compound was determined based on the survival data. […]

[2] = test system: STING signaling pathway in HUVEC; assay: Western blot of STING pathway proteins; assay type: cell-based, human; conditions: NAC 5 mM pretreatment 2 h + candesartan 15 µM 48 h
Protocol: (§1) Total protein was extracted using RIPA lysis buffer (Solarbio, China) supplemented with phenylmethylsulfonyl fluoride (PMSF; Thermo Fisher Scientific, USA), protease inhibitor cocktail (Roche, Switzerland), and phosphatase inhibitor cocktail (Roche, Switzerland). Protein concentration was determined using a BCA protein assay kit (Thermo Fisher Scientific, USA). Equal amounts of protein were separated by 10% SDS-polyacrylamide gel electrophoresis (SDS-PAGE) and transferred onto nitrocellulose (NC) membranes. […] All primary antibodies were purchased from Cell Signaling Technology (CST, USA), except for GAPDH, which was obtained from Proteintech (Wuhan, China). After washing, the membranes were incubated with HRP-conjugated goat anti-rabbit or anti-mouse IgG secondary antibodies (Biosharp, China) for 1 h at room temperature. Protein bands were visualized using an enhanced chemiluminescence (ECL) detection system and scanned using a chemiluminescence imaging system.

HUVEC [3] = assay: DNA damage: γ-H2AX western blot and alkaline comet assay; assay type: cell-based, human
Protocol: as §1

HUVEC [4] = assay: Wound healing and Transwell assays; assay type: cell-based, human; conditions: candesartan 15, 7.5, 3.75 µM; sunitinib 2 µM; 48 h
Protocol: HUVEC cells were digested and inoculated into 6-well plates, with 1 × 10^5 cells added to each hole. On the second day, the gun head was drawn vertically along the edge of the upper lid of the hole plate. The cells were washed twice with PBS, the scratched cells were removed, and the serum free medium containing drugs was added. The photos were taken and recorded under the microscope for 0 h and cultured in a 5% CO2 incubator at 37℃. After 48 h, the sample was taken and photographed for recording. The cell scratch area was calculated with Image J software.
Migration assays were performed using the Transwell cell culture insert. HUVEC (3 × 10^4 cells) were suspended with 100µL serum-free medium containing different concentrations of compounds and placed in the upper layer of the Transwell cell culture insert, and 300µL medium containing 10% FBS was placed below the cell-permeable membrane. Following an incubation (48 h), the cells that had migrated through the membrane were stained with 0.2% crystal violet for 30 min and count.

[5] = test system: FAK-MMP9 signaling in HUVEC; assay: Western blot of FAK and MMP-9; assay type: cell-based, human
Protocol: as §1

HUVEC [6] = assay: Tube formation assay; assay type: cell-based, human; conditions: candesartan 15, 7.5, 3.75 µM; sunitinib 2 µM
Protocol: The 96-well plate was coated with 50 µl matrix glue per well, and then HUVEC was inoculated into the 96-well plate coated with matrix glue with a density of 4 × 10^4 cells per well. Photos were taken with an optical microscope (Nikon, China) after culture at 37℃ and 5% CO2 for 6–8 h, and the length of the generated blood vessels was analyzed using ImageJ.

## CCN(CC)Cc1cc(Nc2ccnc3cc(Cl)ccc23)ccc1O [Amodiaquine]
[1]
  Pathological choroidal neovascularization: reduces pathological choroidal neovascularization
APLNR
  Inhibition of APLN/APLNR signaling: inhibits APLN/APLNR signaling in a concentration-dependent manner

## CSCC[C@H](NC(=O)[C@@H]1CCCN1C(=O)CNC(=O)[C@H](CCCCN)NC(=O)[C@H](Cc1c[nH]cn1)NC(=O)[C@H](CO)NC(=O)[C@H](CC(C)C)NC(=O)[C@H](CCCNC(=N)N)NC(=O)[C@@H]1CCCN1C(=O)[C@H](CCCNC(=N)N)NC(=O)[C@@H](N)CCC(N)=O)C(=O)N1CCC[C@H]1C(=O)N[C@@H](C)C(=O)O [Compound F13A]
Zebrafish embryos
  LD50(µM,48 h): 2.85 ± 0.31 µM

## CC(=O)N[C@@H](CS)C(=O)O [NAC, N-acetylcysteine]
[2]
  Effect on candesartan-induced STING pathway upregulation: attenuated candesartan-induced upregulation of STING pathway components
HUVEC [3]; NAC 5 mM + candesartan 15 µM
  Effect on candesartan-induced γ-H2AX expression: significantly reduced γ-H2AX expression
HUVEC [3]; NAC 5 mM pre-treatment + candesartan 15 µM
  Effect on candesartan-induced DNA damage (comet assay): effectively mitigate candesartan-induced DNA damage

## CCN(CC)CCNC(=O)c1c(C)[nH]c(/C=C2\C(=O)Nc3ccc(F)cc32)c1C [Sunitinib]
HUVEC [4]
  Migratory and invasive capacities of HUVECs: significantly reduced the migratory and invasive capacities of HUVECs
[5]
  Expression of MMP9 and FAK: significantly decreased the expression of MMP9 and FAK
HUVEC [6]
  Tube formation: mean mesh size and total mesh area: increase the mean mesh and the total meshe area
  Tube formation: number of junctions, total segment length, number of meshes: significantly reduced the number of junctions, total segment length, and the number of meshes
